Experiments:
Format in all cases: in vivo
[1] = test system: small-flower umbrella sedge (Cyperus difformis); assay: Test C flooded paddy test plant response; conditions: Flood, 250 g ai/ha; scale of 0 to 100 where 0 is no effect and 100 is complete control; 13 to 15 days
Method in brief: (§1)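 Scale 0 (no effect) to 100 (complete control), assigned visually versus controls after 13–15 d greenhouse. Application: directly to paddy water, 3 cm flood depth kept constant, 2-leaf stage.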

rice (Oryza sativa) = assay: Test C flooded paddy test plant response; conditions: Flood, 250 g ai/ha; scale of 0 to 100 where 0 is no effect and 100 is complete control; 13 to 15 days
Method in brief: as §1

[2] = test system: ducksalad (Heteranthera limosa); assay: Test C flooded paddy test plant response; conditions: Flood, 250 g ai/ha; scale of 0 to 100 where 0 is no effect and 100 is complete control; 13 to 15 days
Method in brief: as §1

[3] = test system: barnyardgrass (Echinochloa crus-galli); assay: Test C flooded paddy test plant response; conditions: Flood, 250 g ai/ha; scale of 0 to 100 where 0 is no effect and 100 is complete control; 13 to 15 days
Method in brief: as §1

[4] = test system: oilseed rape (Brassica napus); assay: Test D pre-/postemergence plant response
Method in brief: (§2)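 0 = no effect, 100 = complete control: plants were scored this way by visual comparison with controls 13 to 15 days post-treatment. Application was preemergence to sown loam/sand pots or postemergence to 2–18 cm seedlings in peat-based mix.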

[5] = test system: Italian ryegrass (Lolium multiflorum); assay: Test D pre-/postemergence plant response
Method in brief: as §2

[6] = test system: lambsquarters (Chenopodium album); assay: Test D pre-/postemergence plant response
Method in brief: as §2

[7] = test system: velvetleaf (Abutilon theophrasti); assay: Test D pre-/postemergence plant response
Method in brief: as §2

[8] = test system: winter wheat (Triticum aestivum); assay: Test D pre-/postemergence plant response
Method in brief: as §2

[9] = test system: galium (catchweed bedstraw, Galium aparine); assay: Test D pre-/postemergence plant response
Method in brief: as §2

corn (Zea mays) = assay: Test D pre-/postemergence plant response
Method in brief: as §2

kochia (Kochia scoparia) = assay: Test B pre-/postemergence plant response
Method in brief: (§3)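 Steps: plant seeds in loam soil–sand mix; spray soil preemergence, and in parallel spray 2–10 cm one- to two-leaf plants postemergence; hold ~10 days in greenhouse; visually rate injury against untreated controls (0 = no effect, 100 = complete control).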

[10] = test system: Italian ryegrass (Lolium multiflorum); assay: Test B pre-/postemergence plant response
Method in brief: as §3

[11] = test system: ragweed (common ragweed, Ambrosia elatior); assay: Test B pre-/postemergence plant response
Method in brief: as §3

[12] = Postemergence, 31 g ai/ha, scale 0 to 100 (0 no effect, 100 complete control)
[13] = Postemergence, 62 g ai/ha, scale 0 to 100, 0 no effect, 100 complete control
[14] = Postemergence, 16 g ai/ha, scale 0 to 100 (0 no effect, 100 complete control)
[15] = 125 g ai/ha, postemergence, 0 to 100 scale, 0 no effect, 100 complete control
[16] = Postemergence, 500 g ai/ha, 0 to 100 scale (0 no effect, 100 complete control)
[17] = Preemergence, 125 g ai/ha, 0 to 100 scale (0 no effect, 100 complete control)
[18] = Preemergence, 500 g ai/ha, 0 to 100 scale where 0 is no effect and 100 is complete control
[19] = Preemergence, 4 g ai/ha, scale 0 to 100 (0 no effect, 100 complete control)
[20] = Preemergence, 8 g ai/ha, scale 0 to 100 (0 no effect, 100 complete control)
[21] = Preemergence, 16 g ai/ha, scale 0 to 100 (0 no effect, 100 complete control)
[22] = Preemergence, 31 g ai/ha, scale 0 to 100 (0 no effect, 100 complete control)

FC(F)(F)c1cc(-c2c(I)cccc2Oc2ncc(Cl)cn2)no1 [Compound 156]
20: Plant response rating (scale 0 to 100), Galium ([9]; Postemergence, 8 g ai/ha) | Kochia plant response rating (kochia (Kochia scoparia); [17]) | Plant response rating, Ragweed [11, 15]
45: Plant response rating, Oilseed Rape [4, 13]
25: Plant response rating, Velvetleaf [7, 13]
90: Plant response rating, Kochia (kochia (Kochia scoparia); [15]) | Plant response rating, Kochia (kochia (Kochia scoparia); [16])
60: Galium plant response rating [9, 12]
15: Velvetleaf plant response rating [7, 12]
35: Lambsquarters plant response rating [6, 12]
40: Oilseed Rape plant response rating [4, 12] | Plant response rating, Lambsquarters [6, 13] | Plant response rating, Kochia (kochia (Kochia scoparia); [18]) | Plant response rating, Ragweed [11, 16]
0: Sedge, Umbrella plant response rating [1] | Rice plant response rating (rice (Oryza sativa)) | Ducksalad plant response rating [2] | Barnyardgrass plant response rating [3] | Plant response rating (scale 0 to 100), Ryegrass, Italian ([5]; Postemergence, 8 g ai/ha) | Ryegrass, Italian plant response rating [5, 12] | Plant response rating, Ryegrass, Italian [5, 13] | Plant response rating (scale 0 to 100), Velvetleaf ([7]; Postemergence, 8 g ai/ha) | Plant response rating (scale 0 to 100), Wheat ([8]; Postemergence, 8 g ai/ha) | Plant response rating (scale 0 to 100), Corn (corn (Zea mays); Postemergence, 8 g ai/ha) | Ryegrass, Italian plant response rating [10, 17] | Plant response rating, Ryegrass, Italian [10, 18] | Ragweed plant response rating [11, 17] | Plant response rating, Ragweed [11, 18]
5: Plant response rating (scale 0 to 100), Oilseed Rape ([4]; Postemergence, 8 g ai/ha) | Wheat plant response rating [8, 12] | Corn plant response rating (corn (Zea mays); [14]) | Corn plant response rating (corn (Zea mays); [12]) | Plant response rating, Corn (corn (Zea mays); [13])
30: Plant response rating, Ryegrass, Italian [10, 15]
10: Plant response rating (scale 0 to 100), Lambsquarters ([6]; Postemergence, 8 g ai/ha) | Plant response rating, Wheat [8, 13]
70: Plant response rating, Galium [9, 13] | Plant response rating, Ryegrass, Italian [10, 16]

N#Cc1cccc(Oc2ncc(Cl)cn2)c1-c1cc(C(F)(F)F)on1 [Compound 157]
100: Plant response rating, Oilseed Rape [4, 22] | Plant response rating, Lambsquarters [6, 21] | Plant response rating, Lambsquarters [6, 22] | Plant response rating, Kochia (kochia (Kochia scoparia); [16]) | Kochia plant response rating (kochia (Kochia scoparia); [17]) | Plant response rating, Kochia (kochia (Kochia scoparia); [18]) | Plant response rating, Ryegrass, Italian [10, 16]
20: Plant response rating (scale 0 to 100), Lambsquarters ([6]; Postemergence, 4 g ai/ha) | Ryegrass, Italian plant response rating [10, 17] | Ragweed plant response rating [11, 17]
10: Plant response rating (scale 0 to 100), Galium ([9]; Postemergence, 4 g ai/ha) | Plant response rating, Ragweed [11, 15]
85: Plant response rating, Galium [9, 22]
70: Galium plant response rating [9, 12] | Plant response rating, Galium [9, 19] | Plant response rating, Ragweed [11, 18]
80: Plant response rating, Galium [9, 20] | Plant response rating, Galium [9, 21]
90: Plant response rating, Kochia (kochia (Kochia scoparia); [15]) | Plant response rating, Ryegrass, Italian [10, 15] | Plant response rating, Ryegrass, Italian [10, 18]
25: Oilseed Rape plant response rating [4, 12] | Plant response rating (scale 0 to 100), Lambsquarters ([6]; Postemergence, 8 g ai/ha) | Plant response rating, Lambsquarters [6, 20]
55: Lambsquarters plant response rating [6, 12]
50: Plant response rating (scale 0 to 100), Galium ([9]; Postemergence, 8 g ai/ha) | Plant response rating, Ragweed [11, 16]
45: Plant response rating, Velvetleaf [7, 21]
0: Rice plant response rating (rice (Oryza sativa)) | Barnyardgrass plant response rating [3] | Plant response rating (scale 0 to 100), Oilseed Rape ([4]; Postemergence, 4 g ai/ha) | Plant response rating, Oilseed Rape [4, 19] | Plant response rating, Oilseed Rape [4, 20] | Plant response rating (scale 0 to 100), Ryegrass, Italian ([5]; Postemergence, 4 g ai/ha) | Plant response rating (scale 0 to 100), Ryegrass, Italian ([5]; Postemergence, 8 g ai/ha) | Plant response rating, Ryegrass, Italian [5, 19] | Plant response rating, Ryegrass, Italian [5, 20] | Plant response rating, Ryegrass, Italian [5, 21] | Plant response rating, Lambsquarters [6, 19] | Plant response rating, Velvetleaf [7, 19] | Plant response rating (scale 0 to 100), Wheat ([8]; Postemergence, 4 g ai/ha) | Plant response rating (scale 0 to 100), Wheat ([8]; Postemergence, 8 g ai/ha) | Wheat plant response rating [8, 12] | Plant response rating, Wheat [8, 19] | Plant response rating, Wheat [8, 20] | Plant response rating, Wheat [8, 21] | Plant response rating (scale 0 to 100), Corn (corn (Zea mays); Postemergence, 4 g ai/ha) | Plant response rating (scale 0 to 100), Corn (corn (Zea mays); Postemergence, 8 g ai/ha) | Plant response rating, Corn (corn (Zea mays); [19]) | Plant response rating, Corn (corn (Zea mays); [20]) | Plant response rating, Corn (corn (Zea mays); [22])
40: Sedge, Umbrella plant response rating [1] | Ducksalad plant response rating [2] | Plant response rating, Oilseed Rape [4, 21] | Velvetleaf plant response rating [7, 12]
75: Plant response rating, Velvetleaf [7, 22]
5: Plant response rating (scale 0 to 100), Oilseed Rape ([4]; Postemergence, 8 g ai/ha) | Ryegrass, Italian plant response rating [5, 12] | Plant response rating, Ryegrass, Italian [5, 22] | Plant response rating (scale 0 to 100), Velvetleaf ([7]; Postemergence, 4 g ai/ha) | Plant response rating (scale 0 to 100), Velvetleaf ([7]; Postemergence, 8 g ai/ha) | Plant response rating, Velvetleaf [7, 20] | Plant response rating, Wheat [8, 22] | Corn plant response rating (corn (Zea mays); [14]) | Corn plant response rating (corn (Zea mays); [12]) | Plant response rating, Corn (corn (Zea mays); [21])
